Columns and labels:
β-lactoglobulin = target: T1, β-lactoglobulin (Bos taurus, UniProt P02754); experiment: STD NMR binding with β-lactoglobulin; details: 1 mM rebaudioside A, 20 μM β-lactoglobulin, 40° C., pH 3
T1 sequence (P02754 17-178): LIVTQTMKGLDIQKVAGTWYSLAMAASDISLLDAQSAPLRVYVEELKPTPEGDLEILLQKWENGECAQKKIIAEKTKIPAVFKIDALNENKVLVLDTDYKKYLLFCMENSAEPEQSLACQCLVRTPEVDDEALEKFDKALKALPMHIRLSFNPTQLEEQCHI
Text: (§1) A first step is to assess binding of the protein to ligand under investigation. Saturation transfer difference (STD) NMR spectroscopy was utilized to screen ligands for binding to proteins. The method is based on the transfer of saturation from the protein to the bound ligands, which exchange into solution where they are detected as a reduction in the intensity of the free ligand signal. By subtracting the spectrum in which the protein is saturated from a spectrum without protein saturation produces a spectrum showing only the difference in which only the signals of the ligand(s) remain. This method was used to identify binding epitopes, because the ligand residues in direct contact with the protein show faster build-up of STD signals. This method involves a several-fold excess of ligand concentration over protein, allowing low […] protein concentrations to be used.
FIG. 8A is the solvent suppressed (WET) ^1H NMR spectrum of a sample containing 1 mM rebaudioside A and 20 μM β-lactoglobulin at 40° C. and pH 3. FIG. 8B is the STD spectrum of the same sample. Separate FIDs were stored with on-resonance saturation at 7.19 ppm and off-resonance saturation at −15 ppm.

[1] = target: bovine serum albumin (BSA) (Bos taurus, UniProt P02769); experiment: Saturation transfer difference (STD) NMR binding screen with BSA
Chain of bovine serum albumin (BSA) (P02769 25-607): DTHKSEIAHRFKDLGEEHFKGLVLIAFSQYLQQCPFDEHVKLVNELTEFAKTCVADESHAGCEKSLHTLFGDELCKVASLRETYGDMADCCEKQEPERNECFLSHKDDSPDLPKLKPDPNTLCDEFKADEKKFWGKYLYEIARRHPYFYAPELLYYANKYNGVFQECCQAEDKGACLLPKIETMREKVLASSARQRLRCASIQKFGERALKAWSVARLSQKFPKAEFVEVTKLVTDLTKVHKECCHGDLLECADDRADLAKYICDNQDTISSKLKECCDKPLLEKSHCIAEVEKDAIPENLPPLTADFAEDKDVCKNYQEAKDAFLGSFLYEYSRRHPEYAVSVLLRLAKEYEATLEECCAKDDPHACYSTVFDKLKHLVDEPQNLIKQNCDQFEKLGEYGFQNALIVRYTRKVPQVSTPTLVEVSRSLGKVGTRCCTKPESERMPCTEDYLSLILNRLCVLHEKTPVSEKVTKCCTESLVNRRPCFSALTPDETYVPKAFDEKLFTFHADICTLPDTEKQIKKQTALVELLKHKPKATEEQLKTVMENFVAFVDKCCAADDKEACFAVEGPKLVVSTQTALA
Text: as §1, with “used. […]” for “used.”
FIG. 2A is the pre-saturated 600 MHz ^1H NMR spectrum of a 2 mM rebaudioside A and 50 μM BSA in filtered orange juice with 10% D2O at 25° C. A STD spectrum (FIG. 2B) of 2 mM rebaudioside A and 50 μM BSA in filtered orange juice with on- and off-resonance saturation at 8.56 and 31 ppm, respectively was recorded to validate the stability of rebaudioside A—BSA complex in a natural and complex food matrix. […]

panelists = experiment: Paired comparison taste test of organoleptic properties by 5 panelists; type: in vivo; details: taste panel, solution in 50 mL
Text: The following compositions were formulated and tested for their organoleptic properties through a paired comparison test by 5 panelists.

[2] = compared with dulcoside A; cited from earlier work

Compound | binding to β-lactoglobulin by STD spectrum (β-lactoglobulin) | binding to BSA by STD spectrum ([1]; 1 mM rebaudioside A, 20 μM BSA, D2O, pH 3.0, 40° C., saturation at 7.19 ppm) | binding to BSA by STD spectrum in food matrix ([1]; 2 mM rebaudioside A, 50 μM BSA, filtered orange juice with 10% D2O, 25° C.) | Quality: bitter after taste (panelists) | Quality: onset of sweetness (panelists) | bitterness relative to dulcoside A [2] | sweetness relative to dulcoside A [2]
rebaudioside A | capable of binding to β-lactoglobulin | binds to BSA | specific binding between Rebaudioside A and BSA occurs | sweetness and bitter after taste | Slow onset of sweetness | – | –
C=C1C[C@@]23CC[C@H]4[C@@](C)(CCC[C@@]4(C)C(=O)O[C@@H]4O[C@H](CO)[C@@H](O)[C@H](O)[C@H]4O[C@@H]4O[C@H](CO)[C@@H](O)[C@H](O)[C@H]4O)[C@@H]2CC[C@]1(O[C@@H]1O[C@H](CO)[C@@H](O)[C@H](O[C@@H]2O[C@H](CO)[C@@H](O)[C@H](O)[C@H]2O)[C@H]1O[C@@H]1O[C@H](CO)[C@@H](O)[C@H](O)[C@H]1O)C3 [rebaudioside D] | – | – | – | – | – | two-thirds less bitter | around five times sweeter

Source: US20180255816A1, “SWEETENERS HAVING ENHANCED ORGANOLEPTIC PROPERTIES” (CORNELL UNIVERSITY, priority 2015, published 2018)
